According to US20100063035A1, “CARBONIC ANHYDRASE INHIBITORS DERIVATIVES” (Nicox S.A., priority 2006, published 2010):

Experiments:
hCA I = hCA I (Homo sapiens, UniProt P00915); assay: Carbonic anhydrase inhibition, stopped-flow CO2 hydration assay, isoenzyme CA I
Method: (§1) An SX.18MV-R Applied Photophysics stopped flow instrument was used for assaying the CA CO2 hydration activity. […] The buffer solution was constituted by 10 mM HEPES, 0.1 M Na2SO4, and TRIZMA hydrochloride 0.01 M, adjusting the pH solution at 7.5 with NaOH (0.1 M). […] Satured CO2 solution in bidistilled water at 20° C. was used as substrate.
(§2) Stock solutions of inhibitor (1 mM) were prepared with buffer solution with 10-20% (v/v) DMSO, and dilutions up to 0.1 nM. To allow for the formation of the E-1 complex, inhibitor and enzyme solutions were preincubated during 15 min at room temperature prior to assay. Enzyme concentration was 0.1 μM for CA I and II, 10 μM for CA IV. The human CA I and CA II are commercially available, whereas hCA IV (tumor) is cloned isoform.
Each experiment was done in triplicate.

hCA IV = hCA IV (Homo sapiens, UniProt P22748); assay: Carbonic anhydrase inhibition, stopped-flow CO2 hydration assay, isoenzyme CA IV
Method: as §1, §2
Each experiment was done in triplicate.

hCA II = hCA II (Homo sapiens, UniProt P00918); assay: Carbonic anhydrase inhibition, stopped-flow CO2 hydration assay, isoenzyme CA II
Method: as §1, §2
Each experiment was done in triplicate.

Chain of hCA I (P00915 whole entry): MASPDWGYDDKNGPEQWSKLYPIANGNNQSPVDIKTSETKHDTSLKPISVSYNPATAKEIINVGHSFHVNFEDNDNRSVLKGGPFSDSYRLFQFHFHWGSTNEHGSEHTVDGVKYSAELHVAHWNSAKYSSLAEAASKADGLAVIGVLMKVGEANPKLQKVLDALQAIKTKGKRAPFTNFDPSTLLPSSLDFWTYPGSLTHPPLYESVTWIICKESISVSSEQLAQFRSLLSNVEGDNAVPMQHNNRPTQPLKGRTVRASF
Chain of hCA IV (P22748 19-284 limits assumed): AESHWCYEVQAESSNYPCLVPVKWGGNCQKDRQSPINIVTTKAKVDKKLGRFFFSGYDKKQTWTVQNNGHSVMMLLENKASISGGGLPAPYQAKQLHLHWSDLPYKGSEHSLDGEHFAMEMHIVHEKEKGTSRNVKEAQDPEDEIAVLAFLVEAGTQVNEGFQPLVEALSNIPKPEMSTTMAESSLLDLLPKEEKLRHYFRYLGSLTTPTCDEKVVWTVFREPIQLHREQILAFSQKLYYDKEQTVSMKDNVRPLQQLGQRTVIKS

| Ki (hCA I) | Ki (hCA IV) | Ki (hCA II) | SMILES |
| --- | --- | --- | --- |
| 42300 nM | 411 nM | 886 nM | CCN[C@H]1CC(C)S(=O)(=O)c2sc(S(=O)(=O)NC(=O)OCCCCO[N+](=O)[O-])cc21 (stereo partly drawn) [Ex. 7, (4S-trans)-4-(ethylamino)-5,6-dihydro-6-methyl-4H-thieno[2,3-b]thiopyran-2-sulfonylamido-N-(4-(nitrooxy)butyloxycarbonyl)-7,7-dioxide] |
| 15000 nM | 3400 nM | 251 nM | CCN[C@H]1CC(C)S(=O)(=O)c2sc(S(=O)(=O)NC(=O)CCCCCO[N+](=O)[O-])cc21 (stereo partly drawn) [Ex. 1, (4S-trans)-4-(ethylamino)-5,6-dihydro-6-methyl-4H-thieno[2,3-b]thiopyran-2-sulfonylamido-N((6-nitrooxy)hexanoyl)-7,7-dioxide] |
